Laboratory results reported in US4719211A, “2,3,4,9-tetrahydro-2-heteroarylalkyl-1H-pyrido(3,4-B)indoles having antihypertensive properties” (American Home Products Corporation, priority 1986, dated 1988).
Where a name gives a salt, the structure may show the parent alone.

Tests used:
[1] = tested on: spontaneously hypertensive rat (SHR); experiment: Antihypertensive effect: change in systolic blood pressure in spontaneously hypertensive rats (tail plethysmography); format: in vivo
Procedure: The systolic blood pressure of male conscious, spontaneously hypertensive rat (SHR) (Taconic Farms) is measured by indirect tail plethysmography using a system designed and built by Narco Bio-Systems-(Model MK-IV). Groups consisting of 4 rats receive a single oral dose of the test compound. Rats are warmed in a heated chamber at 38° C. for 10 minutes prior to measurement of systolic pressure to increase the accuracy of measurements.
The systolic pressure and heart rate data are collected in an Hewlett Packard 88 computer. Data are grouped and summarized, with the mean change in pressure and heart rate at each time period calculated.
Unless otherwise noted, the compound was tested in the form in which it was obtained in the example.

[2] = molecular target: T1, limbic D-2 dopamine receptor (Rattus norvegicus, UniProt P61169); experiment: Inhibition of limbic D-2 dopamine receptor binding (3H-spiroperidol, rat limbic brain homogenate); settings: 0.3 nM 3H-spiroperidol, read-out: Ki (and 95% confidence interval)
T1 construct: Limbic brain tissue (nucleus accumbens, septal area, olfactory tubercle) is dissected and homogenized on ice; from tissue; host or cells: rat limbic brain tissue (nucleus accumbens, septal area, olfactory tubercle), washed membrane homogenate
Procedure: Several rats are decapitated and the brains are rapidly removed. […] The homogenate is then diluted 4-fold with buffer and centrifuged at 30,000×g for 20 min, and the supernatant is discarded. The pellet is resuspended in the same volume of buffer and recentrifuged as before, again discarding the supernatant. This pellet is then resuspended in the same volume of buffer used in the homogenization, and the protein content of this preparation is assayed by the Lowry method. The homogenate is stored frozen at -70° C. until use.
The vials are then counted in a Packard 460CD scintillation counter.
Specific binding is defined as total binding less binding in the presence of 1 μM (+)butaclamol. Binding in the presence of various concentrations of test drug is expressed as a percent of specific binding when no drug is present. […] Linear regression analysis then yields a straight line with 95% confidence limits from which an IC50 can be inversely predicted. Ki (inhibition constant) for the test drug is then calculated by the formula: [formula]

rats = experiment: Conditioned avoidance response procedure (response lever); format: in vivo; settings: ip, rat, i.p.; for ED50: read-out: AB50 (dose producing 50% block in avoidance responding)
Procedure: In conditioned avoidance response type procedures, the effect of the drug on the subject animals previously trained ability to avoid and/or escape a shock is measured. […] If the compound blocks the subject animal's ability to escape the shock, then the compound is judged to have a sedative effect.
In this procedure, rats trained previously are placed in plexiglass experimental chambers equipped with a response lever, house light, and sonalert. A steel grid floor is wired for presentation of electric shock. Each trial consists of a fifteen-second warning tone (conditioned stimulus), continuing for an additional fifteen seconds accompanied by electric shock, (unconditioned stimulus). The rat can terminate a trial at any point by depression of the response lever. A response during the initial fifteen-second warning tone ends the trial before shock delivery and is considered an avoidance response, while a response occuring during shock delivery is an escape response. Trials are presented on a variable interval schedule of two minutes. The session consists of sixty trials. Animals are run two to three times weekly with control sessions always preceding a drug run, and with at least one day intervening, compounds are administered i.p. (p.o., s.c.) at appropriate pre-treatment times to a minimum of five to six rats at each dose level over a range of doses.
The following experimental parameters are recorded by computer: (1) the number of intertrial interval responses, (2) the number of avoidance responses, (3) the number of escape responses, and (4) the number of trials in which no response occured.
Response counts are summed over all subjects at a given dose. […] This number is expressed as a percentage of the total trials. Control performance is assumed to be 100% for avoidance and escape responding and the dose calculated to produce a 50% block in avoidance responding (AB50) is obtained from a dose-effect regression line fitted by the method of least squares. […] If both AB50 's and EB20 's can be calculated, a dose ratio can be determined according to the following formula: […]

male CF-1 mice = experiment: Antagonism of apomorphine-induced stereotyped behavior in mice; format: in vivo, mouse; settings: apomorphine 10 mg/kg s.c.
Procedure: In the second procedure, the compound's (drug's) abiltiy to antagonize apomorphine-induced stereotyped behavior in mice is measured. In the procedure, 20-25 g male CF-1 mice (Charles River) are tested one week before the experiment for a positive stereotyped response to 10 mg/kg s.c. apomorphine. Test compounds, suspended or solubilized in 0.25% Tween 80 ® in water, are administered at several dose levels to male mice (6/dose level). A control group, run simultaneously with drug groups, receives equal volumes of solvent. Thiry minutes later (i.p. administration) or 60 minutes later (p.o administration), drug-treated and control mice are challenged with 10 mg/kg apomorphine s.c. Five minutes after the injection, the rearing-head-bobbing-licking syndrome induced by apomorphine is recorded as present or absent for each animal. Readings are repeated every 5 minutes during a 30 minute test session. The number of positive or negative 5-minute intervals during which apoomorphine-induced stereotyped behavior is present or absent. ED50 values (with 95% confidence intervals) are calculated for inhibition of apomorphine-inducedstereotyped behavior, by a simple linear regression analysis with inverse prediction.

[3] = SHR, single oral dose 10 mg/kg, 1.5 hrs.
[4] = SHR, single oral dose 50 mg/kg, 1.5 hrs.
[5] = SHR, single oral dose 50 mg/kg, 4 hrs.
[6] = SHR, single oral dose 10 mg/kg, 4 hrs.

T1 sequence (P61169 whole entry): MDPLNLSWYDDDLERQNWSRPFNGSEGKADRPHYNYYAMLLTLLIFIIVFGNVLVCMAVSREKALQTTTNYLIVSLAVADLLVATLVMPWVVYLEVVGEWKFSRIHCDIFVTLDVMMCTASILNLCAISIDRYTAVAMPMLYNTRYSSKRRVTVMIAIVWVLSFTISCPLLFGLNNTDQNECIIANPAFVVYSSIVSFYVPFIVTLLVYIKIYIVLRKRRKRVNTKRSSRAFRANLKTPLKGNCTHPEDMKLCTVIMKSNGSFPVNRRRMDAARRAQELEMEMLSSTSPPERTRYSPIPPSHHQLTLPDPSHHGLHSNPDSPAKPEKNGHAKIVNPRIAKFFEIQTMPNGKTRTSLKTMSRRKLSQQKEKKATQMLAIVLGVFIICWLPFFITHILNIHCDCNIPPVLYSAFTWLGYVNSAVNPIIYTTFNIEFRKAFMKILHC

Compound | Change in Blood Pressure [1, 4] | Change in Blood Pressure [1, 5] | ED50 (rats) [mg/kg] | also measured
Cl.Cl.c1ccc2nc(CCN3CCc4c([nH]c5ccccc45)C3)ccc2c1 [Example 5, 2,3,4,9-Tetrahydro-2-[2-(2-Quinolinyl)ethyl]-1H-Pyrido[3,4-b]Indole Dihydrochloride] | -98 mm of Hg. | -84 mm of Hg. | – | Change in Blood Pressure [1, 3]: -25 mm of Hg.; Ki [2]: 166 nM; minimal effective dose (rats; read-out: dose down to which the avoidance response is blocked in a dose dependant manner): ≤ 15 mg/kg; ED50 (male CF-1 mice; Mus musculus, ip, read-out: ED50 for inhibition of apomorphine-induced stereotyped behavior): 18 mg/kg; ED50 for inhibition of apomorphine-induced stereotyped behavior (male CF-1 mice; i.p., Dihydrochloride): 20.37 mg/kg
Cl.Cl.c1ccc2nc(CCCCN3CCc4c([nH]c5ccccc45)C3)ccc2c1 [Example 8, 2,3,4,9-Tetrahydro-2-[4-(2-Quinolinyl)butyl]1H-Pyrido[3,4-b]Indole, Dihydrochloride] | – | – | 31 | –
Cl.Cl.O.c1ccc2c3c([nH]c2c1)CN(CCCCCCCc1ccncc1)CC3 [Example 3, 2,3,4,9-Tetrahydro-2-[7-(4-Pyridinyl)heptyl]-1H-Pyrido[3,4-b]Indole, Dihydrochloride Hydrate] | -44 mm of Hg. | -58 mm of Hg. | – | –
Cl.Cl.c1cncc(CCCN2CCc3c([nH]c4ccccc34)C2)c1 [Example 13, 2,3,4,9-Tetrahydro-2-[3-(3-Pyridinyl)propyl]1H-pyrido[3,4-b]indole, dihydrochloride] | – | – | 20.9 | –
c1ccc2c3c([nH]c2c1)CN(Cc1ccncc1)CC3 [Example 1, 2,3,4,9-Tetrahydro-2-(4-Pyridinylmethyl)-1H-Pyrido-[3,4-b]Indole, Dihydrochloride Hemihydrate] | -27 mm of Hg. | -35 mm of Hg. | – | –
Cl.Cl.c1ccc2c3c([nH]c2c1)CN(CCCCc1ccncc1)CC3 [Example 4, 2,3,4,9-Tetrahydro-2-[4-(4-Pyridinyl)butyl]-1H-Pyrido[3,4-b]Indole Dihydrochloride] | -105 mm of Hg. | -115 mm of Hg. | 14.1 | Change in Blood Pressure [1, 3]: -43 mm of Hg.; Change in Blood Pressure [1, 6]: -39 mm of Hg.
c1ccc(CCN2CCc3c([nH]c4ccccc34)C2)nc1 [Example 9, 2,3,4,9-Tetrahydro-2-[2-(2-Pyridinyl)ethyl]-1H-pyrido[3,4-b]-indole, Dihydrochloride.] | – | – | 22.6 | –
Cl.Cl.c1ccc2c3c([nH]c2c1)CN(CCc1cnccn1)CC3 [Example 7, 2,3,4,9-Tetrahydro-2-[2-(2Pyrazinyl)ethyl]-1H-Pyrido[3,4-b]Indole, Dihydrochloride] | -110 mm of Hg. | -104 mm of Hg. | – | Change in Blood Pressure ([1]; SHR, single oral dose 5 mg/kg, 1.5 hrs.): -14 mm of Hg.
Cl.Cl.c1ccc2c3c([nH]c2c1)CN(CCc1ccncc1)CC3 [Example 2, 2,3,4,9-Tetrahydro-2-[2-(4-Pyridinyl)ethyl]-1H-Pyrido[3,4-b]Indole, Dihydrochloride] | -79 mm of Hg. | -57 mm of Hg. | – | Change in Blood Pressure [1, 3]: -73 mm of Hg.; Change in Blood Pressure [1, 6]: -30 mm of Hg.; Change in Blood Pressure ([1]; SHR, single oral dose 25 mg/kg, 1.5 hrs.): -18 mm of Hg.; Change in Blood Pressure ([1]; SHR, single oral dose 25 mg/kg, 4 hrs.): -58 mm of Hg.
Cl.Cl.c1ccc2nc(CN3CCc4c([nH]c5ccccc45)C3)ccc2c1 [2,3,4,9-tetrahydro-2-(2-quinolinylmethyl)-1H-pyrido[3,4-b]-indole, dihydrochloride, reference compound] | – | – | – | Change in Blood Pressure ([1]; 50 mg/kg, time not stated, did not lower blood pressure significantly): -10 mm Hg
Cl.Cl.c1ccc2c(CCCCN3CCc4c([nH]c5ccccc45)C3)ccnc2c1 [Example 6, 2,3,4,9-Tetrahydro-2-[4-(4-Quinolinyl)butyl]-1H-Pyrido[3,4-b]Indole, Dihydrochloride] | -94 mm of Hg. | – | – | –
